Reference: the NIST ThermoML archive (doi:10.1021/je800849s)
Numbers after ± are expanded uncertainties.

Details: Liquid, Closed cell (Static) method

CCC [propane]
Details | vapor or sublimation pressure [kPa]
263.3 K | 344 ± 1
283.25 K | 639 ± 2
291.22 K | 795 ± 3
296.23 K | 906 ± 3
308.21 K | 1221 ± 4
323.19 K | 1715 ± 5
